# Values quoted from earlier work as cited in patent US20250281392A1, “TOPICAL DELIVERY OF EPINEPHRINE AND PRODRUG COMPOSITIONS” (Aquestive Therapeutics, Inc., priority 2024, published 2025).
# Conditions: cited from earlier work
compound,measurement,value
CCOCCOCCO [Diethylene glycol monoethyl ether],Log P (octanol:water),−0.43
